Test results reported in patent US9145415B2, “Nitrogen-containing heterocyclic compound or salt thereof” (FUJIFILM Corporation, priority 2012, dated 2015).
Like-named read-outs stand apart in the source and are kept apart here.

Legend:
[1] = target: T1, human FLT3 protein (FLT3 (WT)) (Homo sapiens, UniProt P36888); experiment: FLT3 inhibition test (FLT3 enzyme inhibition, time-resolved fluorescence of substrate peptide phosphorylation); type: biochemical
T1 construct: human FLT3 protein (intracellular region, 564 to 993 aa); GST; purchased Carna Biosciences; host or cells: baculovirus expression system
T1 sequence (P36888 564-993): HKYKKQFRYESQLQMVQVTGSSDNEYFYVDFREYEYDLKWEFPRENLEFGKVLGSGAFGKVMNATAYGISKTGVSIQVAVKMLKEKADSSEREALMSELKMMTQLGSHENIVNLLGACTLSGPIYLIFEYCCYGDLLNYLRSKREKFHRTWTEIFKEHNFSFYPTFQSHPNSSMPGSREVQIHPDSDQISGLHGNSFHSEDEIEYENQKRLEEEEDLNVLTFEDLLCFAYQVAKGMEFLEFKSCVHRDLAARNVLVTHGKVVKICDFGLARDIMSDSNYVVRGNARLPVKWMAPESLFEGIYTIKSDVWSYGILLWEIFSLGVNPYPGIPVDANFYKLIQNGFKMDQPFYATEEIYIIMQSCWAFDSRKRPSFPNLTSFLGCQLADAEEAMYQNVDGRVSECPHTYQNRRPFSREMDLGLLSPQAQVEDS
Summary of the method: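 Wild-type human FLT3 (1.2 μg) pre-incubated with compound 15 min at 25° C in 100 mM HEPES pH 7.5, 10 mM MgCl2, 25 mM NaCl, 1 mM DTT. Reaction started with substrate peptide and ATP (final 50 μM), run 30 min at 25° C; phosphorylation read by time-resolved fluorescence.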

MV4-11 cells = experiment: Leukemia cell proliferation inhibition test (ATPlite), MV4-11; type: cell-based; conditions: Homo sapiens, read-out: MV4-11 cell proliferation inhibition effect
Summary of the method: (§1)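 Molm-13 or MV4-11 cells at 10,000 cells/well in RPMI with 10% FBS and pen/strep were exposed to serially diluted compound for 72 h at 37 °C, 5% CO2. Total cellular ATP was read by luciferase luminescence. GI50 was taken relative to 0.1% DMSO control, from duplicates by sigmoid non-linear regression.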

Molm-13 cells = experiment: Leukemia cell proliferation inhibition test (ATPlite), Molm-13; type: cell-based; conditions: Homo sapiens, read-out: MOLM13 cell proliferation inhibition effect
Summary of the method: as §1

[2] = GST-fused human FLT3 (564 to 993 aa), ATP 50 μM, read-out: FLT3 (WT) enzyme inhibition activity
[3] = MV4-11, 72 h, MV4-11, 72 hours culture, ATPlite, GI50 per method
[4] = MOLM-13, 72 h, Molm-13, 72 hours culture, ATPlite, GI50 per method
[5] = FLT3 (WT), read-out: FLT3 (WT) enzyme inhibition activity

C[C@@H](C(=O)NCCCC#Cc1cnc(Nc2cccc(F)c2)nc1NC1=CC2C=CC=NC2C=C1)N(C)C(=O)/C=C/CN(C)C (stereo partly drawn) [Compound 7-7]
IC50 [1, 2]: < 10 nM | IC50 (MV4-11 cells; [3]): < 10 nM | IC50 (Molm-13 cells; [4]): < 10 nM

CNc1nc(Nc2ccc3c(F)nn(C)c3c2)ncc1C#CCCCNC(=O)[C@H](C)N(C)C(=O)/C=C/CN(C)C [Compound 21-50]
IC50 [1, 5]: < 10 nM | IC50 (MV4-11 cells; MV4-11, MV4-11 cell): < 10 nM | IC50 (Molm-13 cells; MOLM-13, MOLM13 cell): < 10 nM

CCCNc1nc(Nc2cnc3c(c2)c(C)nn3C)ncc1C#CCCCNC(=O)[C@@H]1CCCN1C(=O)/C=C/CN(C)C [Compound 22-45]
IC50 [1, 5]: < 10 nM | IC50 (MV4-11 cells; MV4-11, MV4-11 cell): < 10 nM | IC50 (Molm-13 cells; MOLM-13, MOLM13 cell): < 10 nM

CCCNc1nc(Nc2cccc(F)c2)ncc1C#Cc1cccc(NC(=O)[C@H](C)N(C)C(=O)/C=C/CN(C)C)n1 [Compound 8-20]
IC50 [1, 2]: 10 to 100 nM | IC50 (MV4-11 cells; [3]): 10 to 100 nM | IC50 (Molm-13 cells; [4]): 100 to 1000 nM

CCCNc1nc(Nc2ccc(C(N)=O)cc2)ncc1C(=O)Nc1cccc(NC(=O)[C@H](C)N(C)C(=O)/C=C/CNCCF)c1 [Compound 4-10]
IC50 ([1]; FLT3 (WT) enzyme inhibition activity, GST-fused human FLT3 (564 to 993 aa), ATP 50 μM): < 10 nM | IC50 (MV4-11 cells; [3]): < 10 nM | IC50 (Molm-13 cells; [4]): < 10 nM

CCCNc1nc(Nc2ccc(C(N)=O)cc2)ncc1C(=O)Nc1ccc(NC(=O)/C=C/CN(C)C)cc1 [Compound 3-6]
IC50 [1, 2]: < 10 nM | IC50 (MV4-11 cells; [3]): 100 to 1000 nM | IC50 (Molm-13 cells; [4]): > 1000 nM

CCCNc1nc(NC)ncc1C#C[C@@H]1CCC[C@H](NC(=O)[C@H](C)N(C)C(=O)/C=C/CN(C)C)C1 [Compound 21-35]
IC50 [1, 5]: < 10 nM | IC50 (MV4-11 cells; MV4-11, MV4-11 cell): 10 to 100 nM | IC50 (Molm-13 cells; MOLM-13, MOLM13 cell): 10 to 100 nM

CCCNc1nc(Nc2cccc(C(F)(F)F)c2)ncc1C#CCCCNC(=O)[C@H](C)N(C)C(=O)/C=C/CN(C)C [Compound 11-11]
IC50 [1, 2]: < 10 nM | IC50 (MV4-11 cells; [3]): 10 to 100 nM | IC50 (Molm-13 cells; [4]): 10 to 100 nM

CCCNc1nc(Nc2ccc(C(N)=O)cc2)ncc1C(=O)Nc1cccc(NC(=O)[C@@H]2CCCN2C(=O)/C=C/CN(C)C)c1 [Compound 3-30]
IC50 [1, 2]: < 10 nM | IC50 (MV4-11 cells; [3]): < 10 nM | IC50 (Molm-13 cells; [4]): 10 to 100 nM

C[C@@H](C(=O)NCCCC#Cc1cnc(Nc2ccc(C#N)cc2)nc1NC1CCC1)N(C)C(=O)/C=C/CN(C)C [Compound 10-47]
IC50 [1, 2]: < 10 nM | IC50 (MV4-11 cells; [3]): < 10 nM | IC50 (Molm-13 cells; [4]): < 10 nM

COCCNc1nc(Nc2ccc(C#N)cc2)ncc1C#C[C@@H]1CCC[C@H](NC(=O)[C@H](C)N(C)C(=O)/C=C/CN(C)C)C1 [Compound 22-39]
IC50 [1, 5]: < 10 nM | IC50 (MV4-11 cells; MV4-11, MV4-11 cell): < 10 nM | IC50 (Molm-13 cells; MOLM-13, MOLM13 cell): < 10 nM

CCCNc1nc(Nc2cccc(C#N)c2)ncc1C#CCCCNC(=O)[C@H](C)N(C)C(=O)/C=C/CN(C)C [Compound 7-3, (S,E)-N-(1-((5-(2-((3-Cyanophenyl)amino)-4-(propylamino)pyrimidin-5-yl)-4-pentyn-1-yl)amino)-1-oxopropan-2-yl)-4-(dimethylamino)-N-methyl-2-butenamide]
IC50 [1, 2]: < 10 nM | IC50 (MV4-11 cells; [3]): < 10 nM | IC50 (Molm-13 cells; [4]): < 10 nM

CCCNc1nc(Nc2cccc(Cl)c2)ncc1C#CCCCNC(=O)[C@H](C)N(C)C(=O)/C=C/CN(C)C [Compound 12-2, (S,E)-N-(1-((5-(2-((3-chlorophenyl)amino)-4-(propylamino)pyrimidin-5-yl)-4-pentyn-1-yl)amino)-1-oxopropan-2-yl)-4-(dimethylamino)-N-methyl-2-butenamide]
IC50 [1, 2]: < 10 nM | IC50 (MV4-11 cells; [3]): < 10 nM | IC50 (Molm-13 cells; [4]): 10 to 100 nM

CC[C@@H](C(=O)NCCCC#Cc1cnc(Nc2ccc(F)nc2)nc1Nc1cccc(F)c1)N(C)C(=O)/C=C/CN(C)C [Compound 10-32]
IC50 [1, 2]: < 10 nM | IC50 (MV4-11 cells; [3]): < 10 nM | IC50 (Molm-13 cells; [4]): < 10 nM

COc1ccc(Nc2ncc(C#CCCCNC(=O)[C@H](C)N(C)C(=O)/C=C/CN(C)C)c(NCCCF)n2)cc1F [Compound 7-56, (S,E)-4-(Dimethylamino)-N-(1-((5-(2-((3-fluoro-4-methoxyphenyl)amino)-4-((3-fluoropropyl)amino)pyrimidin-5-yl)-4-pentyn-1-yl)amino)-1-oxopropan-2-yl)-N-methyl-2-butenamide]
IC50 [1, 2]: < 10 nM | IC50 (MV4-11 cells; [3]): < 10 nM | IC50 (Molm-13 cells; [4]): < 10 nM

CCCN(C)c1nc(Nc2ccc(C(=O)NC3CC3)cc2)ncc1C#CCCCNC(=O)[C@H](C)N(C)C(=O)/C=C/CN(C)C [Compound 9-8]
IC50 [1, 2]: < 10 nM | IC50 (MV4-11 cells; [3]): < 10 nM | IC50 (Molm-13 cells; [4]): 10 to 100 nM

COCCCNc1nc(Nc2ccnc(OC)c2)ncc1C#CCCCNC(=O)[C@H](C)N(C)C(=O)/C=C/CN(C)C [Compound 9-31]
IC50 [1, 2]: < 10 nM | IC50 (MV4-11 cells; [3]): < 10 nM | IC50 (Molm-13 cells; [4]): < 10 nM

CCCNc1nc(Nc2cnc3c(c2)c(OC)nn3C)ncc1C#CCCCNC(=O)[C@@H]1CCCN1C(=O)/C=C/CN(C)C [Compound 22-47]
IC50 [1, 5]: < 10 nM | IC50 (MV4-11 cells; MV4-11, MV4-11 cell): < 10 nM | IC50 (Molm-13 cells; MOLM-13, MOLM13 cell): < 10 nM

CCCN(C)c1nc(Nc2cccc(F)c2)ncc1C#CCCCNC(=O)[C@H](C)N(C)C(=O)/C=C/CN(C)C [Compound 9-5]
IC50 [1, 2]: < 10 nM | IC50 (MV4-11 cells; [3]): 10 to 100 nM | IC50 (Molm-13 cells; [4]): 10 to 100 nM

CCCNc1nc(Nc2ccc3ncsc3c2)ncc1C#CCCCNC(=O)[C@H](C)N(C)C(=O)/C=C/CN(C)C [Compound 22-6, (S,E)-N-(1-((5-(2-(Benzo[d]thiazol-6-ylamino)-4-(propylamino)pyrimidin-5-yl)-4-pentyn-1-yl)amino)-1-oxopropan-2-yl)-4-(dimethylamino)-N-methyl-2-butenamide]
IC50 [1, 5]: < 10 nM | IC50 (MV4-11 cells; MV4-11, MV4-11 cell): < 10 nM | IC50 (Molm-13 cells; MOLM-13, MOLM13 cell): < 10 nM

C=CC(=O)N(C)CC(=O)Nc1cccc(NC(=O)c2cnc(NCCc3ccncc3)nc2NCCC)c1 [Compound 1-3]
IC50 [1, 2]: < 10 nM | IC50 (MV4-11 cells; [3]): < 10 nM | IC50 (Molm-13 cells; [4]): < 10 nM

C[C@@H](C(=O)N[C@H]1C[C@@H](C#Cc2cnc(Nc3cccc(F)c3)nc2NC2CC2)C1)N(C)C(=O)/C=C/CN(C)C [Compound 15-7]
IC50 [1, 2]: < 10 nM | IC50 (MV4-11 cells; [3]): < 10 nM | IC50 (Molm-13 cells; [4]): < 10 nM

CNc1ncc(C#C[C@@H]2CCC[C@H](NC(=O)[C@H](C)N(C)C(=O)/C=C/CN(C)C)C2)c(Nc2ccc(F)cc2)n1 [Compound 21-37]
IC50 [1, 5]: < 10 nM | IC50 (MV4-11 cells; MV4-11, MV4-11 cell): < 10 nM | IC50 (Molm-13 cells; MOLM-13, MOLM13 cell): < 10 nM

CCCNc1nc(Nc2cccc(F)c2)ncc1-c1cn(CCNC(=O)[C@H](C)N(C)C(=O)/C=C/CN(C)C)nn1 [Compound 17-2, (S,E)-4-(dimethylamino)-N-(1-((2-(4-(2-((3-fluorophenyl)amino)-4-(propylamino)pyrimidin-5-yl)-1H-1,2,3-triazol-1-yl)ethyl)amino)-1-oxopropan-2-yl)-N-methyl-2-butenamide]
IC50 [1, 2]: < 10 nM | IC50 (MV4-11 cells; [3]): < 10 nM | IC50 (Molm-13 cells; [4]): < 10 nM

CC(C)CN(C)c1nc(Nc2ccc(C#N)cc2)ncc1C#CCCCNC(=O)[C@H](C)N(C)C(=O)/C=C/CN(C)C [Compound 10-15]
IC50 [1, 2]: < 10 nM | IC50 (MV4-11 cells; [3]): < 10 nM | IC50 (Molm-13 cells; [4]): < 10 nM

C=CC(=O)NCC(=O)NCCNC(=O)c1cnc(NCCc2ccncc2)nc1NCCC [Compound 2-18]
IC50 [1, 2]: 10 to 100 nM | IC50 (MV4-11 cells; [3]): > 1000 nM | IC50 (Molm-13 cells; [4]): > 1000 nM

C[C@@H](C(=O)NCCCC#Cc1cnc(Nc2ccc(C#N)cc2)nc1N1CCC(F)(F)CC1)N(C)C(=O)/C=C/CN(C)C [Compound 10-43]
IC50 [1, 2]: < 10 nM | IC50 (MV4-11 cells; [3]): 10 to 100 nM | IC50 (Molm-13 cells; [4]): 10 to 100 nM

CCCNc1nc(Nc2ccc3nnccc3c2)ncc1C(=O)Nc1cccc(NC(=O)[C@H](C)N(C)C(=O)/C=C/CN(C)C)c1 [Compound 6-11, (S,E)-2-(Cinnolin-6-ylamino)-N-(3-(2-(4-(dimethylamino)-N-methyl-2-butenamido)propanamido)phenyl)-4-(propylamino)pyrimidine-5-carboxamide]
IC50 [1, 2]: < 10 nM | IC50 (MV4-11 cells; [3]): < 10 nM | IC50 (Molm-13 cells; [4]): < 10 nM
